Molecules are shown by their SMILES. “And” between values parts separate entries of the source, which are not always exact repeats. Equal values may be shown once.

Mitogen-activated protein kinase kinase kinase kinase 1, sequence (Q92918 whole entry): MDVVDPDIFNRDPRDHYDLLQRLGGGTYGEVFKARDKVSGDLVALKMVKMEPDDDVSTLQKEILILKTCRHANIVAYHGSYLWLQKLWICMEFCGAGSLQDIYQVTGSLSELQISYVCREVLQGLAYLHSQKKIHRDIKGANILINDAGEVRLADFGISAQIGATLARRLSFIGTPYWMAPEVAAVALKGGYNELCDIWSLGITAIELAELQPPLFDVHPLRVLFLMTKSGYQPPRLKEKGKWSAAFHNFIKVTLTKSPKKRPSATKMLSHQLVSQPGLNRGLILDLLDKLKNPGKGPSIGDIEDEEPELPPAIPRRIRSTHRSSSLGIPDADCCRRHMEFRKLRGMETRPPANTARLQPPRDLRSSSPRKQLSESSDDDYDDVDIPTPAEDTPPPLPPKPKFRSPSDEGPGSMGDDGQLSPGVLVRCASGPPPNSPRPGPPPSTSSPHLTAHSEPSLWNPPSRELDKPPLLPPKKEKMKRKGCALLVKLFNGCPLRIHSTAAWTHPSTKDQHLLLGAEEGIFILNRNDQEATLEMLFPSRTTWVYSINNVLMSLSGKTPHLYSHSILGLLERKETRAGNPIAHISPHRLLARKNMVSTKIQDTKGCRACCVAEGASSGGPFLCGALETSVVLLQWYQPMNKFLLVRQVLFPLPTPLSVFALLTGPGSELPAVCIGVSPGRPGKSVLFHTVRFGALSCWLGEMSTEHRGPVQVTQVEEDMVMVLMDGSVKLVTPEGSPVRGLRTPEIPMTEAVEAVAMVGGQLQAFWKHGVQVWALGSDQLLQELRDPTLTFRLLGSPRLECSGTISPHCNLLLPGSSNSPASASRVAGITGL

For this test, the target named is Mitogen-activated protein kinase kinase kinase kinase 1 (Homo sapiens, UniProt Q92918). The test is described as follows: MAP4K1 Biochemical Enzymatic Activity. On the procedure:
Inhibitors were dissolved in 100% DMSO at a stock concentration of 10 mM. A 100X, 10-point, 4-fold serial dilution of each inhibitor was created in 100% DMSO either manually or on a Hamilton STAR liquid handler, starting at a relevant concentration, usually 1 mM. A volume of 0.130 µL of each concentration was transferred to the relevant wells of a 384-well plate (Greiner 781 201) in duplicate using a TTPLabtech Mosquito nano-litre dispenser. Using a Multidrop Combi, the remaining constituents of the kinase reaction were added to the 130 nL of dosed compound as follows (see table below for final reaction details):Enzyme activity assays at the APPKM for ATP or 1 mM ATP: In each well of a 384-well plate, 0.1 - 15 nM of untreated enzyme was incubated in a total of 13 µL of buffer (100 mM HEPES pH 7.5, 0.015% Brij 35, 10 mM MgCl2, 1mM DTT) with 1.5 µM fluorescent peptide and 20 - 1000 µM ATP, at 25 °C, for 60 - 180 minutes in the presence or absence of a dosed concentration series of compound (1% DMSO final concentration). The kinase reactions were stopped by the addition of 70 µl of Stop buffer (100 mM HEPES pH 7.5, 0.015% Brij 35, 35 mM EDTA and 0.2% of Coating Reagent 3 (Caliper Lifesciences)). The plates were read on a Caliper EZReader 2 as described above.
In turn, `COc1ncc([C@@H](C)O)c2cc(Nc3ccnc(C(C)(C)F)n3)ncc12` [WO2023288264, Compound 1] displayed an IC50 of 121 nM.
The figure for `COc1ncc([C@H](C)O)c2cc(Nc3ccnc(C(C)(C)F)n3)ncc12` [WO2023288264, Compound 2] is 64 nM.
As for `COc1ncc(C(C)(C)O)c2cc(Nc3ccnc(N4CCCC4)n3)ncc12` [WO2023288264, Compound 9], the IC50 amounted to 1.63 nM.
The compound `COc1ncc([C@@](C)(O)C(F)F)c2cc(Nc3ccnc(C(C)(C)F)n3)ncc12` [WO2023288264, Compound 11] came in with an IC50 of 15 nM.
The figure for `COc1ncc([C@](C)(O)C(F)F)c2cc(Nc3ccnc(C(C)(C)F)n3)ncc12` [WO2023288264, Compound 12] is 47 nM; for `CC[C@@H](O)c1cnc(OC)c2cnc(Nc3ccc4c(n3)[C@@H](C)C(C)(C)OC4=O)cc12` [WO2023288264, Compound 14] it is 0.25 nM and 0.61 nM.
The figure for `CC[C@H](O)c1cnc(OC)c2cnc(Nc3ccc4c(n3)[C@@H](C)C(C)(C)OC4=O)cc12` [WO2023288264, Compound 15] is 3.06 nM.
The figure for `CC[C@@](C)(O)c1cnc(OC)c2cnc(Nc3ccc4c(n3)[C@@H](C)C(C)(C)OC4=O)cc12` [WO2023288264, Compound 17] is 0.3 nM; for `COC[C@@H](O)c1cnc(OC)c2cnc(Nc3ccc4c(n3)[C@@H](C)C(C)(C)OC4=O)cc12` [WO2023288264, Compound 18] it is 1.65 nM.
Compound `COC[C@H](O)c1cnc(OC)c2cnc(Nc3ccc4c(n3)[C@@H](C)C(C)(C)OC4=O)cc12` [WO2023288264, Compound 19] had an IC50 of 14 nM.
The figure for `CC[C@](C)(O)c1cnc(NC2CC2)c2cnc(Nc3ccc4c(n3)[C@@H](C)[C@H](C)OC4=O)cc12` [WO2023288264, Compound 20] is 3.48 nM; for `CC[C@@](C)(O)c1cnc(NC2CC2)c2cnc(Nc3ccc4c(n3)[C@@H](C)[C@H](C)OC4=O)cc12` [WO2023288264, Compound 21] it is 1.98 nM.
The figure for `CCOc1ncc([C@](C)(O)CC)c2cc(Nc3ccc4c(n3)[C@@H](C)C(C)(C)OC4=O)ncc12` [WO2023288264, Compound 23] is 3.34 nM.
The compound `CCOc1ncc([C@@](C)(O)CC)c2cc(Nc3ccc4c(n3)[C@@H](C)C(C)(C)OC4=O)ncc12` [WO2023288264, Compound 24] registered an IC50 of 0.39 nM.
`C[C@@H]1OC(=O)c2ccc(Nc3cc4c([C@@](C)(O)C5CC5)cnc(OC5CC5)c4cn3)nc2[C@H]1C` [WO2023288264, Compound 25] yielded an IC50 of 27 nM.

The record behind these values is BindingDB's records for patent WO2023288264 (Blueprint Medicines, 2023).
